Experimental data taken from patent US12497610B2, “Functional genomics using CRISPR-CAS systems for saturating mutagenesis of non-coding elements, compositions, methods, libraries and applications thereof” (THE BROAD INSTITUTE, INC., priority 2015, dated 2025).

Tested on: human BCL11A erythroid enhancer
Assay: Tiled pooled CRISPR-Cas9 screen for in situ functional mapping of the human BCL11A erythroid enhancer (HbF-high/HbF-low sort, sgRNA deep sequencing)
Format: cell-based
Conditions: for Enrichment Score: HbF enrichment, human library NGG and NGG RC sgRNAs filtered for enrichment score >0.259; for Dropout Score: human library sgRNAs that produced HbF enrichment over 0.259
Description: Every 20-mer sequence upstream of an NGG or NAG PAM sequence on the sense or anti-sense strand was identified for both the human and mouse orthologous +55, +58, and +62 DNase hypersensitive site (DHS) as well as BCL11A/BCL11a exon 2. Relative to the human hg 19 reference genome, a reference was used with the following substitutions to approximate a common low-HbF associated haplotype: rs1427407-G, rs1896293-T, rs6706648-T, rs6738440-G, rs7606173-C. Each of the sgRNA oligos were synthesized as previously described (37,41,64) and cloned using a Gibson Assembly master mix (New England Biolabs) into lentiGuide-Puro (Addgene plasmid ID 52963) BsmBI digested, PCR purified, and dephosphorylated. Gibson Assembly products were transformed to electrocompetent E. cloni cells (Lucigen). Sufficient colonies were isolated to ensure 90X library coverage for both human and mouse libraries. Plasmid libraries were deep sequenced (described below) to confirm representation.
Tiled Pooled CRISPR-Cas9 Screen for In Situ Functional Mapping the Human BCL11A Erythroid Enhancer.
HUDEP clone 2 (HUDEP-2) was utilized as previously described by from Nakamura and colleagues (49). HUDEP-2 cells were expanded in StemSpan SFEM (Stem Cell Technologies) supplemented with 10^−6 M dexamethasone (Sigma), 100 ng/mL human stem cell factor (SCF) (R&D), 3 IU/mL erythropoietin (Amgen), 1% L-glutamine (Life Technologies), and 2% penicillin/streptomycin (Life Technologies). 1 μg/mL doxycycline (Sigma) was included in the culture to induce expression of the human papilloma virus type 16 E6/E7 genes (49). HUDEP-2 cells were differentiated in Iscove's Modified Dulbecco's Medium (IMDM) supplemented with 330 μg/mL halo-transferrin (Sigma), 10 μg/mL recombinant human insulin (Sigma), 2 IU/mL heparin (Sigma), 5% human solvent detergent pooled plasma AB (Rhode Island Blood Center), 3 IU/mL erythropoietin (Amgen), 100 ng/mL human stem cell factor (SCF) (R&D), 1 μg/mL doxycycline (Sigma), 1% L-glutamine (Life Technologies), and 2% penicillin/streptomycin (Life Technologies).
HUDEP-2 cells with stable Cas9 expression were transduced at low multiplicity with the human sgRNA library lentivirus pool while in expansion medium. […] Cell numbers were maintained throughout the experiment at levels adequate to exceed 1000× representation of the library. 10 μg/mL blasticidin (Sigma) and 1 μg/mL puromycin (Sigma) were added 24 hours after transduction to select for lentiviral library integrants in cells with Cas9. Cells were cultured in expansion media for one week followed by differentiation media for an additional week.
Intracellular staining was performed by fixing cells with 0.05% glutaraldehyde (grade II) (Sigma) for 10 minutes at room temperature. Cells were centrifuged for 5 minutes at 350 g and then resuspended in 0.1% Triton-X100 (Life Technologies) for 5 minutes at room temperature for permeabilization. Triton X-100 was diluted with phosphate buffered saline (PBS) and then centrifuged at 350 g for 15 minutes. Cells were stained with anti-human antibodies for HbF (clone HbF-1 with FITC or APC conjugation; Life Technologies) and B-hemoglobin antibody (clone 37-8 with PerCP-Cy5 or PE conjugation; Santa Cruz) for 20 minutes in the dark. Cells were washed to remove unbound antibody prior to FACS analysis. 0.2 μg HbF and 2 μg of HbA CB-hemoglobin) antibodies were used per 5 million cells. Control cells exposed to a nontargeting sgRNA sample and BCL11A exon 2 were used as negative and positive controls respectively to establish flow cytometry conditions. Populations of cells with the top and bottom 10% of expression of HbF were sorted by FACS.
After sorting the HbF-high and HbF-low pools, library preparation and deep sequencing was performed as previously described (37). Briefly, genomic DNA was extracted using the Qiagen Blood and Tissue kit. […]

Substance | Enrichment Score | Dropout Score
BCL_00093_H_D55 (guide TCCCTTCCTAGAATTGGCCTNGG; listed as DNA, chemistry not given here) | 0.5283 | −0.5616
BCL_00012_H_D55 (guide AAGTGAGCCAGGTGATAGAANGG; listed as DNA, chemistry not given here) | 0.3511 | −0.01983
BCL_01801_H_D62 (guide CCCCGGCCTCCCAAAGTGCTNGGRC; listed as DNA, chemistry not given here) | 0.6113 | −8.0566
BCL_01826_H_D62 (guide TTTGCTCTTCTCCAGGGTGTNGGRC; listed as DNA, chemistry not given here) | 0.4003 | −0.3386
BCL_00092_H_D55 (guide TTCCCTTCCTAGAATTGGCCNGG; listed as DNA, chemistry not given here) | 0.4035 | −0.4369
BCL_01992_H_exon2 (guide GACCTGGATGCCAACCTCCANGGRC; listed as DNA, chemistry not given here) | 1.234 | −0.6955
BCL_00238_H_D62 (guide TGCCTGTAATCTCAGCTACTNGG; listed as DNA, chemistry not given here) | 0.6113 | −8.923
BCL_00096_H_D55 (guide AGCAAATAGGCTTAGTGTGCNGG; listed as DNA, chemistry not given here) | 0.3521 | −0.2396
BCL_01454_H_D55 (guide GGGTCGCGGTAGGGAGTTGTNGGRC; listed as DNA, chemistry not given here) | 0.3579 | −0.5577
BCL_01999_H_exon2 (guide ATCTCGATTGGTGAAGGGGANGGRC; listed as DNA, chemistry not given here) | 0.6204 | −0.7601
BCL_00233_H_D62 (guide CAGGAGGATCACCTGAGGTCNGG; listed as DNA, chemistry not given here) | 0.6113 | −9.202
BCL_01640_H_D58 (guide TCGGTGGCCGTTTGCCCAGGNGGRC; listed as DNA, chemistry not given here) | 0.3658 | −1.013
BCL_00256_H_exon2 (guide GTGCCAGATGAACTTCCCATNGG; listed as DNA, chemistry not given here) | 1.89 | −1.764
BCL_00008_H_D55 (guide TGAAACCAAGCTTCCTCTGCNGG; listed as DNA, chemistry not given here) | 0.2741 | −0.2303
BCL_01833_H_D62 (guide AGTTCAAGTAGATATCAGAANGGRC; listed as DNA, chemistry not given here) | 0.6116 | 0.2289
BCL_00267_H_exon2 (guide TGGCATCCAGGTCACGCCAGNGG; listed as DNA, chemistry not given here) | 2.049 | −2.006
BCL_00031_H_D55 (guide CTGGCAGACCCTCAAGAGCANGG; listed as DNA, chemistry not given here) | 0.3216 | −1.354

Substance | Enrichment Score | Dropout Score
BCL_00259_H_exon2 (guide CCAGATGAACTTCCCATTGGNGG; listed as DNA, chemistry not given here) | 3.266 | −3.321
BCL_00154_H_D58 (guide AGGGAAAAGGGAGAGGAAAANGG; listed as DNA, chemistry not given here) | 0.4446 | −0.3992
BCL_02009_H_exon2 (guide TCCCCTTCTGGAGCTCCCAANGGRC; listed as DNA, chemistry not given here) | 2.108 | −1.693
BCL_01619_H_D58 (guide TTTTATCACAGGCTCCAGGANGGRC; listed as DNA, chemistry not given here) | 1.662 | −0.3147
BCL_01800_H_D62 (guide GCCCCGGCCTCCCAAAGTGCNGGRC; listed as DNA, chemistry not given here) | 0.6113 | −7.65
BCL_01834_H_D62 (guide TATCAGAAGGGAACTGTTTGNGGRC; listed as DNA, chemistry not given here) | 0.4029 | 0.02327
BCL_01634_H_D58 (guide TGGGTGGGGTAGAAGAGGACNGGRC; listed as DNA, chemistry not given here) | 0.4147 | −1.078
BCL_00240_H_D62 (guide TGTAATCTCAGCTACTCGGGNGG; listed as DNA, chemistry not given here) | 0.79 | −8.691
BCL_00228_H_D62 (guide TCCCAGCACTTTGGGAGGCCNGG; listed as DNA, chemistry not given here) | 0.761 | −5.658
BCL_02000_H_exon2 (guide TCGATTGGTGAAGGGGAAGGNGGRC; listed as DNA, chemistry not given here) | 0.4624 | −1.365
BCL_01799_H_D62 (guide CTCAGGTGATCCTCCTGCCCNGGRC; listed as DNA, chemistry not given here) | 0.9108 | −9.478
BCL_01825_H_D62 (guide ATTTGCTCTTCTCCAGGGTGNGGRC; listed as DNA, chemistry not given here) | 0.2818 | −0.3945
BCL_00130_H_D58 (guide GGAGTATGGGGAGAGAAGAGNGG; listed as DNA, chemistry not given here) | 0.3752 | −2.212
BCL_00182_H_D58 (guide CTTCCGAAAGAGGCCCCCCTNGG; listed as DNA, chemistry not given here) | 0.2942 | 0.02396
BCL_01993_H_exon2 (guide ACCTGGATGCCAACCTCCACNGGRC; listed as DNA, chemistry not given here) | 1.974 | −1.736
BCL_00027_H_D55 (guide CCCATGGAGGTGGGGAGATGNGG; listed as DNA, chemistry not given here) | 0.2823 | −0.4562
